Assay results published in PMC13343842, “The accessory protein CvnF8 modulates histidine kinase activity in an actinobacterial G protein system in Streptomyces coelicolor” (mBio, 2026).

Biological target: T1, CvnA8 (Streptomyces coelicolor, UniProt Q9KYJ8, H183A)
T1 construct: truncated, two N-terminal transmembrane helices removed; printed as 'nucleotides 55–518' (probably residues 55-518); N-terminal 3x Strep tag kept; E. coli BL21(DE3); Strep-Tactin XT and SEC
Assay: Kinase-Glo Plus luminescence ATP consumption, Michaelis-Menten fit
Assay type: biochemical
Details: 1.5 µM CvnA8 H183A, 25 mM Tris pH 8.0, 150 mM NaCl, 100 mM MgCl2, 37 °C; 0-300 µM ATP

T1 sequence (Q9KYJ8 entry or part of it H183A): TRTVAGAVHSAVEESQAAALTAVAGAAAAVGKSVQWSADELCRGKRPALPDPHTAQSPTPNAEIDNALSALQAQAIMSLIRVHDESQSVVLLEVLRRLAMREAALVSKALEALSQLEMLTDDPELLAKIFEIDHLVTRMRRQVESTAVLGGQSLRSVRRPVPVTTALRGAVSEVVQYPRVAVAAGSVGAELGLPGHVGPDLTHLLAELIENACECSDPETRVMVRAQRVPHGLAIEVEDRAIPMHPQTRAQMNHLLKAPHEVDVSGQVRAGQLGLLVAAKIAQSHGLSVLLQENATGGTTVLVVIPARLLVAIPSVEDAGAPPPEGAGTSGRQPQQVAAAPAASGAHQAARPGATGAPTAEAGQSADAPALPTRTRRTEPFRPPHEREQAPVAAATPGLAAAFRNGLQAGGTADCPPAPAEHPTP

Nc1ncnc2c1ncn2[C@@H]1O[C@H](COP(=O)(O)OP(=O)(O)OP(=O)(O)O)[C@@H](O)[C@H]1O [ATP]
Kinase-Glo Plus luminescence ATP consumption, Michaelis-Menten fit: drastically reduced in the H183A mutant, which prohibited the calculation of a nominal kcat
